Activity calls are given as the source filed them.
Tests used:
[1] = Luminescence Cell-Based/Microorganism Confirmation at Dose of Inhibitors of Trypanosoma cruzi Infection. [Related pubchem assays: 1885, 1968 ]; format: functional
[2] = Trypanosoma cruzi growth suppression in host cells – NIH3T3 host cells, beta-gal luminescence, confirmation (AID 2044); format: functional, cell-based;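 also: intracellular parasites grown in NIH/3T3 mouse fibroblasts as host cells; luminescent beta-galactosidase reporter signal from transgenic T. cruzi replicating inside host cells; inhibitors lower the luminescence signal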
[3] = Luminescence Cell-Based Secondary HTS screen to identify cytotoxic compounds of NIH3T3 cells. [Related pubchem assays: 1885, 1968 ]; format: functional
[4] = NIH3T3 cell viability loss – ATP luminescence, mouse fibroblasts, counter-screen, dose response (AID 2010); format: functional, cell-based;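 also: cells exposed to compound for about 90 hours before reading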
[5] = NIH/3T3 cell viability loss – mouse embryonic fibroblasts, dry powder, set 2, cytotoxicity control, dose response (AID 493247); format: functional, cell-based; conditions: Fibroblast
Trypanosoma cruzi = test: anti-trypanosomal activity in host cells – cell-based, plate reader, dry powder, set 3, dose response (AID 493197); format: functional
[6] = T. cruzi infection blockers in NIH3T3 cells – beta-gal luminescence, NIH3T3 host cells, confirmation (AID 2630); format: functional, cell-based; conditions: Mus musculus
[7] = T. cruzi growth inhibition in host cells, dose response, cell-based, plate reader, dry powder, set 2 (AID 652275); format: functional
[8] = anti-trypanosomal activity in BESM host cells – imaging, CA-I/72 strain, bovine embryo skeletal muscle, dry powder, dose response (AID 651885); format: functional, cell-based
[9] = target: G-protein coupled receptor 55 (Homo sapiens, UniProt Q9Y2T6); test: inhibition of LPI-stimulated GPR55 beta-arrestin translocation – imaging, U2OS, beta-arrestin-GFP, LPI agonist, primary screen (AID 2013); format: functional;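 also: antagonist potency measured as reduced agonist-driven arrestin aggregation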
[10] = target: DNA damage-inducible transcript 3 protein (Mus musculus, UniProt P35639); format: functional, Cricetulus griseus
[11] = Luminescence Cell-Based Dose Response HTS to Identify Activators of Luciferase Translation or Activity in H4 […] Cells. [Related pubchem assays: 1829 (Project Summary), 1814 (Primary HTS)]; format: functional
[12] = compound autofluorescence in calcium buffer – biochemical, fluorescence, no RTF in test wells, artefact control for cardiac thin filament activator project, dose response (AID 504697)
Troponin, cardiac muscle = Troponin, cardiac muscle (Homo sapiens, UniProt P19429+P45379+P63316); test: Fluorescence-based biochemical high throughput dose response assay for activators of the calcium sensitivity of cardiac Regulated Thin Filaments (RTF). [Related pubchem assays (depositor defined):AID493008, AID493018, AID504382, AID504383]; format: protein-complex assay
Phosphomannomutase 2 = Phosphomannomutase 2 (Homo sapiens, UniProt O15305); test: Counter screen SAR assay for PMM2 inhibitors via a fluorescence intensity assay. [Related pubchem assays (depositor defined):AID1545, AID1574]
[13] = target: Phosphoethanolamine/phosphocholine phosphatase (Homo sapiens, UniProt Q8TCT1); test: SAR assay for compounds that inhibit PHOSPHO1. [Related pubchem assays (depositor defined):AID1545, AID1565, AID1574]
Mu-type opioid receptor [14] = target: T1, Mu-type opioid receptor (Homo sapiens, UniProt P35372); test: mu opioid receptor activators, image-based, SAR follow-up (AID 2352); format: functional
[15] = target: T2, Delta-type opioid receptor (Homo sapiens, UniProt P41143); test: DOR agonists, SAR follow-up, image-based (AID 2370); format: functional
[16] = target: T3, Kappa-type opioid receptor (Homo sapiens, UniProt P41145); test: kappa opioid receptor blockers, image-based, SAR follow-up (AID 2348); format: functional
Mu-type opioid receptor [17] = target: T1, Mu-type opioid receptor; test: mu opioid receptor blockers – image-based, SAR follow-up (AID 2420); format: functional;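 also: compounds added before stimulation of receptor with agonist DAMGO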
[18] = target: T3, Kappa-type opioid receptor; test: kappa opioid receptor activation potency – imaging, image-based, SAR follow-up (AID 2359); format: functional
[19] = target: Tyrosine-protein phosphatase non-receptor type 7 (Homo sapiens, UniProt P35236); test: SAR analysis of chemical inhibitors of HePTP using a Fluorescent assay - Set 2. [Related pubchem assays (depositor defined):AID1059, AID1077, AID1661, AID2085, AID521]; format: functional
[20] = target: Dual specificity protein phosphatase 3 (Homo sapiens, UniProt P51452); test: SAR VHR1 Fluorescent Assay for In Vitro dose response studies Set 2. [Related pubchem assays (depositor defined):AID1654, AID1661, AID1878]; format: functional
[21] = target: T2, Delta-type opioid receptor; test: delta opioid receptor blockers – image-based, SAR follow-up (AID 2357); format: functional
[22] = target: T3, Kappa-type opioid receptor; test: kappa opioid receptor blockers, cell-based, luminescence, beta-arrestin, SAR follow-up (AID 2285); format: functional
[23] = target: Intestinal-type alkaline phosphatase (Homo sapiens, UniProt P09923); test: human intestinal alkaline phosphatase activators, dose response, biochemical, luminescence, uHTS hits (AID 463120); format: functional
HEK293 [24] = test: inhibition of NOD1-driven NF-kB reporter – cell-based, luminescence, uHTS, primary screen (AID 1578); format: functional; conditions: Homo sapiens
HEK293 [25] = test: cells; format: functional, cell-based; conditions: Homo sapiens
cells [26] = format: functional, cell-based
HEK293 [27] = test: cells; format: functional, cell-based; conditions: Homo sapiens; remark: listed apart in the source
[28] = target: Nucleotide-binding oligomerization domain-containing protein 2 (Homo sapiens, UniProt Q9HC29); test: inhibition of NOD2-driven NF-kB reporter – cell-based, luminescence, uHTS, HEK293 (AID 1566); format: functional
HEK293 [29] = test: NOD2 signaling inhibitors in MDP-stimulated cells, cell-based, uHTS, luminescence (AID 2001); format: functional; conditions: Homo sapiens
HEK293 [30] = test: cells; format: functional, cell-based; conditions: Homo sapiens; remark: listed apart in the source
cells [31] = format: functional, cell-based; remark: listed apart in the source
[32] = tested on: Streptococcus sp. 'group A'; test: Streptococcus pyogenes SK(-)GAS viability under kanamycin – luminescence, BacTiterGlo, confirmation, counter-screen for streptokinase expression inhibitor project, dose response (AID 1900); format: functional, organism-based
BJ [33] = test: BJ-TERT fibroblast viability loss – cell-based, RAS-independent, luminescence, dose response (AID 1933); format: functional; conditions: Homo sapiens
BJ [34] = test: cells; format: functional, cell-based; conditions: Homo sapiens
BJ [35] = test: BJ-TERT-LT-ST fibroblast viability loss – cell-based, RAS-independent, luminescence, dose response (AID 1935); format: functional; conditions: Homo sapiens;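 also: BJ fibroblasts immortalized with TERT plus LT and ST oncogenes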
[36] = DRD fibroblast viability loss – cell-based, non-viral oncogenic, luminescence, dose response (AID 1934); format: functional; conditions: Homo sapiens
Streptococcus = test: GAS UMAA2166 growth inhibition – luminescence, BacTiterGlo, counter-screen for streptokinase expression inhibitor project, dose response (AID 1915); format: functional, organism-based;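 also: potency for reduction of bacterial viability or growth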
[37] = THP-1 cell cytotoxicity, dose response, cytotoxicity control for non-replicating M. tuberculosis project (AID 489025); format: functional
[38] = HepG2 cell cytotoxicity, dose response, cytotoxicity control for non-replicating M. tuberculosis project (AID 489018); format: functional; conditions: Mycobacterium tuberculosis
[39] = Vero E6 cell cytotoxicity, dose response, cytotoxicity control for non-replicating M. tuberculosis project, secondary assay (AID 492998); format: functional, VeroE6; conditions: Vero C1008
[40] = target: T4, Microphthalmia-associated transcription factor (Homo sapiens, UniProt O75030); test: reducers of TRPM1 reporter luminescence, concentration series – cell-based, SK-MEL-5, cherry-picked, set 3, MITF inhibitor project, dose response (AID 493073); format: functional;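 also: SK-MEL-5 melanoma cells with luciferase driven by the MITF target TRPM1 promoter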
T4 sequence (O75030 whole entry): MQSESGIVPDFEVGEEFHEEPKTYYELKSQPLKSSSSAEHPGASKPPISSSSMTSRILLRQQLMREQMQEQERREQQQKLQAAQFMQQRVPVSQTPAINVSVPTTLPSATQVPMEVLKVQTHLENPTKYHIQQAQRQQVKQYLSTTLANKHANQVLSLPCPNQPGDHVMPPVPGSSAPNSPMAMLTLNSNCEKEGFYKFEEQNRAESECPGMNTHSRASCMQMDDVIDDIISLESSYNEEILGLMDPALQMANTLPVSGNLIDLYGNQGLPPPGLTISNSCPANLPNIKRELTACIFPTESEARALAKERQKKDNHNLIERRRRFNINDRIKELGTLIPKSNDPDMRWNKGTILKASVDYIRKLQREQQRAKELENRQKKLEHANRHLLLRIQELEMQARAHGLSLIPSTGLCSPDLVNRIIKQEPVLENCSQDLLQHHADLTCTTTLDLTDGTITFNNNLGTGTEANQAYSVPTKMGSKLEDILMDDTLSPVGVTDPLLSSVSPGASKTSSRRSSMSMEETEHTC

cells [41] = format: functional
BJ [42] = test: growth inhibition of engineered Ras-driven BJ cells – cell-based, alamar blue fluorescence, cherrypicked samples, dose response (AID 2631); format: functional; conditions: Homo sapiens;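 also: confirmatory dose-response assay in RAS-dependent BJ fibroblasts engineered with TERT, LT and ST, with cytotoxicity read by fluorescence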
INS1 = test: INS-1E survival protection against cytokine death – cell-based, luminescence, retest, dose response (AID 449756); format: functional; conditions: Rattus norvegicus;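 also: cell death triggered by IL-1 beta plus TNF-alpha plus IFN-gamma mixture; protective hits raise ATP signal compared with cytokine alone wells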
Vero = test: cells; format: functional; conditions: Chlorocebus sabaeus
Coagulation factor XII = target: T5, Coagulation factor XII (Homo sapiens, UniProt P00748); test: Factor XIIa Dose Response Confirmation from Single Well HTS. [Related pubchem assays (depositor defined):AID701]; format: functional
T5 sequence (P00748 whole entry): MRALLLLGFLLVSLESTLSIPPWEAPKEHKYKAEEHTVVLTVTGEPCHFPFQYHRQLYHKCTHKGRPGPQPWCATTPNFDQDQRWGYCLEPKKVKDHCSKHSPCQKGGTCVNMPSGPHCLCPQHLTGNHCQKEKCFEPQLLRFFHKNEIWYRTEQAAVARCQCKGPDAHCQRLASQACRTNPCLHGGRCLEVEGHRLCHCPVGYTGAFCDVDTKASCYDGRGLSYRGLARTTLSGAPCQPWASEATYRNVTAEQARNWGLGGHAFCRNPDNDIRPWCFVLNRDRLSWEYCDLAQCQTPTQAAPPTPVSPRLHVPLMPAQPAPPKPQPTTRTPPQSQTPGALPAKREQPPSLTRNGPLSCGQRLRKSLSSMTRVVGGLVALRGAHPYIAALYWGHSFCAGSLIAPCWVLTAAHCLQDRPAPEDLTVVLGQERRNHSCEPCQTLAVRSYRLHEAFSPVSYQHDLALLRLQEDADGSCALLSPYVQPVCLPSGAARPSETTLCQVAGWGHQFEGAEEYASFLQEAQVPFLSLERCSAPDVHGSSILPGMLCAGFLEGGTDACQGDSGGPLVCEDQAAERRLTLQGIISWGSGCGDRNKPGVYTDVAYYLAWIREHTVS

## COc1ccc(CCN(C)C(=O)C2CCCN(Cc3ccc(OC)c(OC)c3)C2)cc1OC (stereo unspecified)
[1]
  EC50: 0.192 µM (active)
[2]
  EC50: < 0.1 µM (active)
[3]
  EC50: > 195 µM (not active)
[4]
  EC50: > 60 µM (not active)
[5]
  AC50: 80.4 µM (active)
Trypanosoma cruzi
  AC50: 0.26 µM (active)
[6]
  EC50: 0.192 µM (active)
[7]
  AC50: 0.252 µM (active)
[8]
  IC50: > 20 µM (inactive)

## C=CCN1C(=O)/C(=C/Nc2ccc(Cc3ccncc3)cc2)C(=O)NC1=S
[9]
  IC50: 0.543 µM (active)

## CCOC(=O)c1c(CN2CCOCC2)n(-c2ccccc2)c2cc(Br)c(O)cc12.Cl
[10]
  Absolute IC50 (CHOP): 10 µM

## N=c1oc2c3c4c(cc2cc1C(=O)Nc1ccccc1)CCCN4CCC3
[11]
  EC50: 8.27 µM (active)
[12]
  EC50: > 0.0109 µM (active)
Troponin, cardiac muscle
  EC50: > 0.0109 µM (active)

## CC(C)(C)c1ccc(-n2sc3ccccc3c2=O)cc1
Phosphomannomutase 2
  IC50: 82.5 µM (active)
[13]
  IC50: 54.3 µM (inactive)

## O=C(NC(NC(=S)Nc1ccccc1)C(Cl)(Cl)Cl)OCc1ccccc1 (stereo unspecified)
Mu-type opioid receptor [14]
  EC50: > 32 µM (inactive)
[15]
  EC50: > 32 µM (inactive)
[16]
  IC50: 17.6 µM (inactive)
Mu-type opioid receptor [17]
  IC50: > 32 µM (inactive)
[18]
  EC50: > 32 µM (inactive)
[19]
  IC50: > 100 µM (inactive)
[20]
  IC50: > 100 µM (inactive)
[21]
  IC50: > 32 µM (inactive)
[22]
  IC50: > 10 µM (inactive)

## Cc1ccc(Cl)cc1NC(=O)C(=O)N/N=C/c1ccc2c(c1)OCO2
[23]
  EC50: 29.6 µM (active)

## O=C(N/N=C/c1ccccn1)c1ccc(Cl)cc1
HEK293 [24]
  EC50: > 20 µM (inactive)
HEK293 [25]
  IC50: > 20 µM (inactive)
Cells [26]
  EC50: > 350 µM (not active)
HEK293 [27]
  IC50: > 20 µM (inactive)
[28]
  EC50: > 20 µM (inactive)
HEK293 [29]
  IC50: 7.14 µM (inactive)
HEK293 [30]
  IC50: > 20 µM (inactive)
Cells [31]
  EC50: > 350 µM (not active)

## COc1cccc(C(=O)N/N=C(/c2ccccc2)c2ccccn2)c1
[32]
  EC50: 14.2 µM (active)
BJ [33]
  EC50: 2.69 µM (active)
Cells [26]
  EC50: 9.7 µM (active)
BJ [34]
  EC50: 4.58 µM (active)
Cells [31]
  EC50: > 350 µM (not active)
BJ [35]
  EC50: 3.26 µM (active)
[36]
  EC50: 2.82 µM (active)
Streptococcus
  EC50: 18 µM (active)
[37]
  CC50: 0.844 µM (active)
[38]
  CC50: 11.3 µM (active)
[39]
  CC50: 1.98 µM (active)
[40]
  AC50: 5.8 µM (active)
Cells [41]
  IC50: 2.04 µM (active)
BJ [42]
  EC50: 1.45 µM (active)
INS1
  AC50: 0.745 µM (active)
Vero
  CC50: 2.36 µM (active)

## CC(/N=c1\ccccn1C(=O)Nc1cccc(C(F)(F)F)c1)c1ccco1 (stereo unspecified)
Coagulation factor XII
  IC50: > 50 µM (inactive)

From ChEMBL document CHEMBL1201862, “PubChem BioAssay data set” (2004)
